Test results as given in ChEMBL document CHEMBL1201862, “PubChem BioAssay data set” (2004).
Values belong to the molecule of their own block, whether it stands above or below them. The source made the active and inactive calls.

Experiments:
Hexokinase-1 = molecular target: T1, Hexokinase-1 (Homo sapiens, UniProt P19367); experiment: hexokinase 1 activity inhibitors, potency – biochemical, set 2, resazurin fluorescence coupled readout, selectivity assay for HKDC1 inhibitor project, SAR follow-up (AID 588356); format: functional
T1 sequence (P19367 whole entry): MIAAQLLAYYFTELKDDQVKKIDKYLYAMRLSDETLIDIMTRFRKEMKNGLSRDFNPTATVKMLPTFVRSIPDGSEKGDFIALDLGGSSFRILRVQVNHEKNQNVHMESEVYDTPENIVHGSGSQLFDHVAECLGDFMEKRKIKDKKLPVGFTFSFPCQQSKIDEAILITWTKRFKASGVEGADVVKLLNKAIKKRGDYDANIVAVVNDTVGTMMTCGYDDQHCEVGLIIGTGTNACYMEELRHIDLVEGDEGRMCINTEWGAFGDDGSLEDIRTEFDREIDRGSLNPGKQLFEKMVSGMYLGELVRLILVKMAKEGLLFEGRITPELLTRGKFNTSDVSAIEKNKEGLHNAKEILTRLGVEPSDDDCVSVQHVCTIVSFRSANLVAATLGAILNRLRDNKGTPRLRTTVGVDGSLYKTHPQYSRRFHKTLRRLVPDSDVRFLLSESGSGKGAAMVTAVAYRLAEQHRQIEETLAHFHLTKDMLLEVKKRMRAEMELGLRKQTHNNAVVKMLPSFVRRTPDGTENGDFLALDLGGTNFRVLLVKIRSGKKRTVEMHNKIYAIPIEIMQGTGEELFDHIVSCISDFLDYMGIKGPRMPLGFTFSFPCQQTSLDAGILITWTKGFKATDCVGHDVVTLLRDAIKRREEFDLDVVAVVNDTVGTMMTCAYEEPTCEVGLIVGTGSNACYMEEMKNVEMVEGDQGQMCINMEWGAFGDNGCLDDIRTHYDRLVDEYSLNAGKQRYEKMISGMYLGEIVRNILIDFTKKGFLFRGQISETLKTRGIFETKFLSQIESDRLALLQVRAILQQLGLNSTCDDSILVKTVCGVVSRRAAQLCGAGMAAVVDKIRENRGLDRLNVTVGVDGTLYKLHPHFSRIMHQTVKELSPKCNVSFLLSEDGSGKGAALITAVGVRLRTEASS

Hexokinase HKDC1 = molecular target: T2, Hexokinase HKDC1 (Homo sapiens, UniProt Q2TB90); experiment: analog inhibition of human HKDC1 activity – biochemical, set 2, SAR follow-up (AID 588355); format: functional
T2 sequence (Q2TB90 whole entry): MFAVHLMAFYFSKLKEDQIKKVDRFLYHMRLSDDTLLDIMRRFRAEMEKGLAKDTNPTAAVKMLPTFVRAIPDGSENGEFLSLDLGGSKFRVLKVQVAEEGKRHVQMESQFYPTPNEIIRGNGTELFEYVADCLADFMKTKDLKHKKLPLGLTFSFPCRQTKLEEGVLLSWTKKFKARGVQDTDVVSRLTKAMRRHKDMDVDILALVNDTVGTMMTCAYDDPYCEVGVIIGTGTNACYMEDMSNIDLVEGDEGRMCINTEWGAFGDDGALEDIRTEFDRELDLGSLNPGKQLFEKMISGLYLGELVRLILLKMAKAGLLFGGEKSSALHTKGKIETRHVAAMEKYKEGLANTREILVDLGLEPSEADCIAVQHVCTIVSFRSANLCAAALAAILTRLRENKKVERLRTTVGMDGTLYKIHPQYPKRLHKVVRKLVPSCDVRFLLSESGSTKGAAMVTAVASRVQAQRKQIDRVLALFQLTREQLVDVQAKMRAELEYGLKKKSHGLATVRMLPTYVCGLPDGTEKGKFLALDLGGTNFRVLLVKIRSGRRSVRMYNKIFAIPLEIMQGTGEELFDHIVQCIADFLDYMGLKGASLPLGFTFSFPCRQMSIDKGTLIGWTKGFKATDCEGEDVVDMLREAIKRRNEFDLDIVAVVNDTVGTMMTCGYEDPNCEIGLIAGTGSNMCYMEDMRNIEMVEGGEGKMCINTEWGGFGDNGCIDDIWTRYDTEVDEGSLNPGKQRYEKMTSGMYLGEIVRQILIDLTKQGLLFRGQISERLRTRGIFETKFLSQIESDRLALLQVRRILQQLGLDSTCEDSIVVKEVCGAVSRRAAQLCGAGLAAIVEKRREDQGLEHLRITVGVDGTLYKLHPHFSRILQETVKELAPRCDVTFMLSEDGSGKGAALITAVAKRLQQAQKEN

Beta-galactosidase = Beta-galactosidase (Escherichia coli, UniProt Q8VNN2); experiment: PubChem AID 485352; format: functional
[1] = molecular target: Type-1 angiotensin II receptor (Homo sapiens, UniProt P30556); experiment: antagonism of angiotensin II type 1 receptor – cell-based, uHTS hits, selectivity assay for APJ receptor antagonist project, dose response (AID 463214); format: functional;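 also: antagonist potency against angiotensin II stimulated AT1 response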
Vero [2] = experiment: mammalian cell viability reduction – secondary assay, cytotoxicity control for West Nile virus antiviral project, dose response (AID 1650); format: functional; conditions: Chlorocebus sabaeus
[3] = HPDE-C7 pancreatic duct cell viability loss – fluorescence, HTS (AID 430); format: functional, cell-based; conditions: Homo sapiens
[4] = viability loss of HPDE-C7K cells – cell-based, fluorescence, HTS, primary screen (AID 431); format: functional; conditions: Homo sapiens
HT-1080 = experiment: HT1080 cell viability loss – fluorescence readout (AID 620); format: functional, cell-based; conditions: Homo sapiens
Vero [5] = experiment: viability of Vero cells under compound – cytotoxicity control for flavivirus capping enzyme inhibitors (AID 588742); format: functional; conditions: Chlorocebus sabaeus

Type-1 angiotensin II receptor, sequence (P30556 whole entry): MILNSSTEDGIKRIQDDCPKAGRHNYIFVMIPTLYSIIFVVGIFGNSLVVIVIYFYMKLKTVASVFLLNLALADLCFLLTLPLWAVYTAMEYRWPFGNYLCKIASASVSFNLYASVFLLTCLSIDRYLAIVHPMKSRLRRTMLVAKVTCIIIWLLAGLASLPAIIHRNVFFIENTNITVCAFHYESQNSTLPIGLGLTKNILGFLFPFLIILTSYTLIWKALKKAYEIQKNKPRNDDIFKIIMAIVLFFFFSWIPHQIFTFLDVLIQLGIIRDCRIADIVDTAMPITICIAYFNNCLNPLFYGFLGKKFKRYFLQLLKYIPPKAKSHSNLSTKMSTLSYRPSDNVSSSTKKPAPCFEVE
Beta-galactosidase, sequence (Q8VNN2 whole entry): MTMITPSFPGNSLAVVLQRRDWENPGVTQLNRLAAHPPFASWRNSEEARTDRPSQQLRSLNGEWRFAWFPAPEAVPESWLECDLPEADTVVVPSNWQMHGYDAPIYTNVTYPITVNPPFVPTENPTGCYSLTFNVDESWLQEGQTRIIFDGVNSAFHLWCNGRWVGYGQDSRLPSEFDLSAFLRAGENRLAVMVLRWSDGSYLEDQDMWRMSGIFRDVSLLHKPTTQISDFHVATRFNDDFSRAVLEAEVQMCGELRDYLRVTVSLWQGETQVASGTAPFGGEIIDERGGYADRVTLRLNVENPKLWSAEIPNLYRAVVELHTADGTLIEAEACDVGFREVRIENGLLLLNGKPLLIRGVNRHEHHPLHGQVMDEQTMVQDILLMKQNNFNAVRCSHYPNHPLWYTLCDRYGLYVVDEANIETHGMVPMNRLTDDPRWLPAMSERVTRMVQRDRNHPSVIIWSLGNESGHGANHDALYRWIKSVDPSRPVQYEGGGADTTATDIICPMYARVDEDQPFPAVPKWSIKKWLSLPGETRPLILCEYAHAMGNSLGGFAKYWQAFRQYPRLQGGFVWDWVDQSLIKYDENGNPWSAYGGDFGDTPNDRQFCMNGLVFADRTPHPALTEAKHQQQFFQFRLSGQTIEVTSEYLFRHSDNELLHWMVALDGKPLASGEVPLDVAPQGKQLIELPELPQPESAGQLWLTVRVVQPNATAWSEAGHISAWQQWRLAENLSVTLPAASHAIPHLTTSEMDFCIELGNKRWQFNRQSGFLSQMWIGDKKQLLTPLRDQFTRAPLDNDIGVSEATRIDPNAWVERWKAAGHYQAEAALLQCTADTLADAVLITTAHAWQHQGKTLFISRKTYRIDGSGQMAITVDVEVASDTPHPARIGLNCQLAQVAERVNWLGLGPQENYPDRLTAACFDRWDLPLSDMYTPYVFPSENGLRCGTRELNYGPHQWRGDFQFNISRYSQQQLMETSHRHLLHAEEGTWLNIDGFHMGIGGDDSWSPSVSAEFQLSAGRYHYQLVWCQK

- IC50 (Hexokinase-1): > 80 µM (inactive)
- IC50 (Hexokinase HKDC1): > 80 µM (inactive)
SMILES: O=c1c2ccc(F)cc2nc(/C=C/c2cccnc2)n1Cc1ccccc1

- EC50 (Beta-galactosidase): > 40 µM (inactive)
- IC50 [1]: > 40 µM (not active)
SMILES: O=C(O)c1cccc(NC(=S)NC(=O)c2cncc(Br)c2)c1

- EC50 (Beta-galactosidase): > 40 µM (inactive)
- IC50 [1]: > 40 µM (not active)
SMILES: COc1cccc(N2CC(C)Cn3c2nc2c3c(=O)n(CCN3CCOCC3)c(=O)n2C)c1 (stereo unspecified)

SMILES: O=C(NCc1cccs1)c1nc(O)c2nnn(Cc3ccccc3Cl)c2n1
- CC50 (Vero [2]): 14.6 µM (active)
- EC50 [3]: > 20 µM (not active)
- EC50 [4]: > 20 µM (not active)
- EC50 (HT-1080): > 50 µM (not active)
- CC50 (Vero [5]): 7 µM (active)
